In the NIST ThermoML archive (doi:10.1021/je7003929):
Numbers after ± are expanded uncertainties.

Settings: Liquid, Vibrating tube method

## CCCCCC [hexane]
313.12 K, 1019 kPa
  mass density: 642.2 ± 0.4 kg/m3
313.12 K, 2044 kPa
  mass density: 643.5 ± 0.5 kg/m3
313.12 K, 3023 kPa
  mass density: 644.6 ± 0.5 kg/m3
313.12 K, 4018 kPa
  mass density: 645.8 ± 0.5 kg/m3
313.12 K, 5016 kPa
  mass density: 647 ± 0.5 kg/m3
313.12 K, 6012 kPa
  mass density: 648.1 ± 0.5 kg/m3
313.12 K, 7016 kPa
  mass density: 649.2 ± 0.5 kg/m3
313.12 K, 8016 kPa
  mass density: 650.3 ± 0.5 kg/m3
313.12 K, 9020 kPa
  mass density: 651.4 ± 0.5 kg/m3
313.12 K, 10018 kPa
  mass density: 652.5 ± 0.5 kg/m3
313.12 K, 11020 kPa
  mass density: 653.5 ± 0.5 kg/m3
313.12 K, 12004 kPa
  mass density: 654.6 ± 0.5 kg/m3
313.12 K, 13007 kPa
  mass density: 655.6 ± 0.5 kg/m3
313.12 K, 14015 kPa
  mass density: 656.6 ± 0.5 kg/m3
313.12 K, 15006 kPa
  mass density: 657.6 ± 0.5 kg/m3
313.12 K, 16023 kPa
  mass density: 658.6 ± 0.5 kg/m3
313.12 K, 17015 kPa
  mass density: 659.6 ± 0.6 kg/m3
313.12 K, 18011 kPa
  mass density: 660.5 ± 0.6 kg/m3
313.12 K, 19009 kPa
  mass density: 661.4 ± 0.6 kg/m3
313.12 K, 20016 kPa
  mass density: 662.4 ± 0.6 kg/m3
313.12 K, 20995 kPa
  mass density: 663.3 ± 0.6 kg/m3
313.12 K, 22018 kPa
  mass density: 664.2 ± 0.6 kg/m3
313.12 K, 23018 kPa
  mass density: 665.1 ± 0.6 kg/m3
313.12 K, 24013 kPa
  mass density: 666 ± 0.6 kg/m3
313.12 K, 25002 kPa
  mass density: 666.8 ± 0.6 kg/m3
323.05 K, 1030 kPa
  mass density: 633 ± 0.5 kg/m3
323.05 K, 2010 kPa
  mass density: 634.3 ± 0.5 kg/m3
323.05 K, 3021 kPa
  mass density: 635.6 ± 0.5 kg/m3
323.05 K, 4018 kPa
  mass density: 636.9 ± 0.5 kg/m3
323.05 K, 5014 kPa
  mass density: 638.1 ± 0.5 kg/m3
323.05 K, 6007 kPa
  mass density: 639.4 ± 0.5 kg/m3
323.05 K, 7010 kPa
  mass density: 640.6 ± 0.5 kg/m3
323.05 K, 8012 kPa
  mass density: 641.8 ± 0.5 kg/m3
323.05 K, 9020 kPa
  mass density: 643 ± 0.5 kg/m3
323.05 K, 10008 kPa
  mass density: 644.1 ± 0.5 kg/m3
323.05 K, 11021 kPa
  mass density: 645.2 ± 0.5 kg/m3
323.05 K, 12011 kPa
  mass density: 646.4 ± 0.5 kg/m3
323.05 K, 13007 kPa
  mass density: 647.4 ± 0.5 kg/m3
323.05 K, 14007 kPa
  mass density: 648.5 ± 0.5 kg/m3
323.05 K, 15035 kPa
  mass density: 649.6 ± 0.5 kg/m3
323.05 K, 16011 kPa
  mass density: 650.6 ± 0.5 kg/m3
323.05 K, 17021 kPa
  mass density: 651.6 ± 0.6 kg/m3
323.05 K, 18020 kPa
  mass density: 652.7 ± 0.6 kg/m3
323.05 K, 19013 kPa
  mass density: 653.7 ± 0.6 kg/m3
323.05 K, 20001 kPa
  mass density: 654.6 ± 0.6 kg/m3
323.05 K, 21028 kPa
  mass density: 655.6 ± 0.6 kg/m3
323.05 K, 22004 kPa
  mass density: 656.6 ± 0.6 kg/m3
323.05 K, 23010 kPa
  mass density: 657.5 ± 0.6 kg/m3
323.05 K, 24021 kPa
  mass density: 658.5 ± 0.6 kg/m3
323.05 K, 25018 kPa
  mass density: 659.4 ± 0.6 kg/m3
332.85 K, 1020 kPa
  mass density: 623.5 ± 0.5 kg/m3
332.85 K, 2021 kPa
  mass density: 625 ± 0.5 kg/m3
332.85 K, 3022 kPa
  mass density: 626.5 ± 0.5 kg/m3
332.85 K, 4020 kPa
  mass density: 627.8 ± 0.5 kg/m3
332.85 K, 5011 kPa
  mass density: 629.2 ± 0.5 kg/m3
332.85 K, 6016 kPa
  mass density: 630.6 ± 0.5 kg/m3
332.85 K, 7012 kPa
  mass density: 631.9 ± 0.5 kg/m3
332.85 K, 8025 kPa
  mass density: 633.3 ± 0.5 kg/m3
332.85 K, 9012 kPa
  mass density: 634.5 ± 0.5 kg/m3
332.85 K, 10010 kPa
  mass density: 635.7 ± 0.5 kg/m3
332.85 K, 11012 kPa
  mass density: 636.9 ± 0.5 kg/m3
332.85 K, 12019 kPa
  mass density: 638.1 ± 0.5 kg/m3
332.85 K, 13007 kPa
  mass density: 639.2 ± 0.5 kg/m3
332.85 K, 14021 kPa
  mass density: 640.4 ± 0.5 kg/m3
332.85 K, 15014 kPa
  mass density: 641.6 ± 0.5 kg/m3
332.85 K, 16025 kPa
  mass density: 642.8 ± 0.6 kg/m3
332.85 K, 17011 kPa
  mass density: 643.8 ± 0.6 kg/m3
332.85 K, 18035 kPa
  mass density: 644.9 ± 0.6 kg/m3
332.85 K, 19014 kPa
  mass density: 646 ± 0.6 kg/m3
332.85 K, 20011 kPa
  mass density: 647.1 ± 0.6 kg/m3
332.85 K, 21015 kPa
  mass density: 648.1 ± 0.6 kg/m3
332.85 K, 22000 kPa
  mass density: 649.1 ± 0.6 kg/m3
332.85 K, 23012 kPa
  mass density: 650.1 ± 0.6 kg/m3
332.85 K, 24022 kPa
  mass density: 651.2 ± 0.6 kg/m3
332.85 K, 25030 kPa
  mass density: 652.2 ± 0.6 kg/m3
342.73 K, 1010 kPa
  mass density: 613.9 ± 0.5 kg/m3
342.73 K, 2010 kPa
  mass density: 615.5 ± 0.5 kg/m3
342.73 K, 3011 kPa
  mass density: 617.1 ± 0.5 kg/m3
342.73 K, 4010 kPa
  mass density: 618.6 ± 0.5 kg/m3
342.73 K, 5005 kPa
  mass density: 620 ± 0.5 kg/m3
342.73 K, 6031 kPa
  mass density: 621.6 ± 0.5 kg/m3
342.73 K, 7020 kPa
  mass density: 623 ± 0.5 kg/m3
342.73 K, 8009 kPa
  mass density: 624.4 ± 0.5 kg/m3
342.73 K, 9015 kPa
  mass density: 625.7 ± 0.5 kg/m3
342.73 K, 10012 kPa
  mass density: 627 ± 0.5 kg/m3
342.73 K, 11006 kPa
  mass density: 628.4 ± 0.5 kg/m3
342.73 K, 12014 kPa
  mass density: 629.7 ± 0.5 kg/m3
342.73 K, 13011 kPa
  mass density: 630.9 ± 0.5 kg/m3
342.73 K, 14014 kPa
  mass density: 632.2 ± 0.5 kg/m3
342.73 K, 15008 kPa
  mass density: 633.4 ± 0.6 kg/m3
342.73 K, 16006 kPa
  mass density: 634.6 ± 0.6 kg/m3
342.73 K, 17021 kPa
  mass density: 635.7 ± 0.6 kg/m3
342.73 K, 18016 kPa
  mass density: 636.9 ± 0.6 kg/m3
342.73 K, 19025 kPa
  mass density: 638 ± 0.6 kg/m3
342.73 K, 20037 kPa
  mass density: 639.2 ± 0.6 kg/m3
342.73 K, 21025 kPa
  mass density: 640.3 ± 0.6 kg/m3
342.73 K, 22016 kPa
  mass density: 641.3 ± 0.6 kg/m3
342.73 K, 23010 kPa
  mass density: 642.5 ± 0.6 kg/m3
342.73 K, 24023 kPa
  mass density: 643.5 ± 0.6 kg/m3
342.73 K, 25006 kPa
  mass density: 644.5 ± 0.6 kg/m3
352.56 K, 1017 kPa
  mass density: 604 ± 0.5 kg/m3
352.56 K, 2028 kPa
  mass density: 605.8 ± 0.5 kg/m3
352.56 K, 3030 kPa
  mass density: 607.6 ± 0.5 kg/m3
352.56 K, 4024 kPa
  mass density: 609.2 ± 0.5 kg/m3
352.56 K, 5022 kPa
  mass density: 610.9 ± 0.5 kg/m3
352.56 K, 6024 kPa
  mass density: 612.5 ± 0.5 kg/m3
352.56 K, 7027 kPa
  mass density: 614 ± 0.5 kg/m3
352.56 K, 8021 kPa
  mass density: 615.5 ± 0.5 kg/m3
352.56 K, 9022 kPa
  mass density: 617 ± 0.5 kg/m3
352.56 K, 10020 kPa
  mass density: 618.4 ± 0.5 kg/m3
352.56 K, 11023 kPa
  mass density: 619.9 ± 0.5 kg/m3
352.56 K, 12003 kPa
  mass density: 621.2 ± 0.5 kg/m3
352.56 K, 13021 kPa
  mass density: 622.6 ± 0.5 kg/m3
352.56 K, 14012 kPa
  mass density: 623.9 ± 0.5 kg/m3
352.56 K, 15007 kPa
  mass density: 625.2 ± 0.6 kg/m3
352.56 K, 16016 kPa
  mass density: 626.5 ± 0.6 kg/m3
352.56 K, 17012 kPa
  mass density: 627.7 ± 0.6 kg/m3
352.56 K, 18015 kPa
  mass density: 629 ± 0.6 kg/m3
352.56 K, 19003 kPa
  mass density: 630.2 ± 0.6 kg/m3
352.56 K, 20040 kPa
  mass density: 631.4 ± 0.6 kg/m3
352.56 K, 21005 kPa
  mass density: 632.5 ± 0.6 kg/m3
352.56 K, 22035 kPa
  mass density: 633.8 ± 0.6 kg/m3
352.56 K, 23002 kPa
  mass density: 634.8 ± 0.6 kg/m3
352.56 K, 24039 kPa
  mass density: 636 ± 0.6 kg/m3
352.56 K, 25000 kPa
  mass density: 637.1 ± 0.6 kg/m3
362.4 K, 1029 kPa
  mass density: 593.8 ± 0.5 kg/m3
362.4 K, 2020 kPa
  mass density: 595.8 ± 0.5 kg/m3
362.4 K, 3028 kPa
  mass density: 597.6 ± 0.5 kg/m3
362.4 K, 4029 kPa
  mass density: 599.5 ± 0.5 kg/m3
362.4 K, 5040 kPa
  mass density: 601.3 ± 0.5 kg/m3
362.4 K, 6026 kPa
  mass density: 602.9 ± 0.5 kg/m3
362.4 K, 7026 kPa
  mass density: 604.7 ± 0.5 kg/m3
362.4 K, 8004 kPa
  mass density: 606.3 ± 0.5 kg/m3
362.4 K, 9007 kPa
  mass density: 607.9 ± 0.5 kg/m3
362.4 K, 10009 kPa
  mass density: 609.4 ± 0.5 kg/m3
362.4 K, 11009 kPa
  mass density: 610.9 ± 0.5 kg/m3
362.4 K, 12010 kPa
  mass density: 612.5 ± 0.5 kg/m3
362.4 K, 13000 kPa
  mass density: 614 ± 0.5 kg/m3
362.4 K, 14028 kPa
  mass density: 615.5 ± 0.6 kg/m3
362.4 K, 15017 kPa
  mass density: 616.8 ± 0.6 kg/m3
362.4 K, 16014 kPa
  mass density: 618.1 ± 0.6 kg/m3
362.4 K, 17004 kPa
  mass density: 619.5 ± 0.6 kg/m3
362.4 K, 18002 kPa
  mass density: 620.9 ± 0.6 kg/m3
362.4 K, 18988 kPa
  mass density: 622.1 ± 0.6 kg/m3
362.4 K, 20027 kPa
  mass density: 623.4 ± 0.6 kg/m3
362.4 K, 21002 kPa
  mass density: 624.7 ± 0.6 kg/m3
362.4 K, 22018 kPa
  mass density: 625.9 ± 0.6 kg/m3
362.4 K, 23013 kPa
  mass density: 627.1 ± 0.6 kg/m3
362.4 K, 24001 kPa
  mass density: 628.4 ± 0.6 kg/m3
362.4 K, 25000 kPa
  mass density: 629.5 ± 0.6 kg/m3
